In patent US20100003217A1, “Compounds and Pharmaceutical Compositions for the Treatment of Viral Infections” (priority 2008, published 2010):

Legend:
[1] = system: HCV genotype 1b replicon (GS4.1 cells); assay: HCV replicon assay (NS4A ELISA); assay type: cell-based, hepatitis C virus; conditions: Hepatitis C virus, 72 h, 3 days
Procedure: The biological activity of Compound 1, diastereomer 1 and diastereomer 2 was measured by monitoring expression of the NS4A protein by enzyme-linked immunosorbent assay (ELISA) and by luciferase assay as described below:
The HCV replicon assay measures the ability of a test compound to inhibit HCV replication in cell culture after 3 days of treatment in a human hepatoma cell line (Huh-7) bearing the HCV genotype 1b replicon (GS4.1 cells). The inhibition of HCV replication was measured by quantification of viral NS4A protein using an enzyme-linked immunosorbent assay (ELISA). […] Additionally, the replicon contains the neomycin phosphotransferase gene under the control of the HCV promoter (Source: Dr. Christoph Seeger, Fox Chase Cancer Center, Philadelphia, Pa.).
The NS4A ELISA assay is summarized as follows. Ninety-six-well tissue culture plates were seeded with GS4.1 cells. Antiviral compound solutions were made up freshly in medium as 2×-concentrated stocks. Eight additional 3-fold drug dilutions were prepared from these stocks in medium for a total of 9 dilutions. At least four hours after GS4.1 cells were seeded, drug treatment was initiated by adding one volume of each 2× concentrated drug dilution to one volume of cells/medium in the tissue culture plates. Cells were then incubated for 3 days at 37° C./5% CO2.
The media/compound was then removed from the plates and cells were fixed with acetone:methanol, washed three times with a wash solution, and then blocked for 1 hour with 10% fetal bovine serum in a balanced salt solution. Cells were washed three times and incubated with an anti-hepatitis C NS4A monoclonal antibody (Virogen Corp.) for 2 hours at 37° C. […] The reaction was stopped with diluted sulfuric acid (Mallinckrodt Chemicals) and absorbance measured on a Victor^3V 1420 multilabel counter (Perkin Elmer). EC50 values were calculated from dose response curves from the resulting best-fit equations determined by Microsoft Excel and XLfit 4.1 software.

[2] = Cytotoxicity assay (MTS), GS4.1 cells; assay type: cell-based, human; conditions: human, 3 days (NS4A-ELISA Assay)
Procedure: The cytotoxicity assay measures the viability of cells after treatment with a test compound for 3 days in either GS4.1 cells or Zluc cells. […] The cytotoxicity assay is summarized as follows. Ninety-six-well tissue culture plates were seeded with GS4.1 or Zluc cells. Antiviral compound solutions were made up freshly in medium as 2×-concentrated stocks. Eight additional 3-fold drug dilutions were prepared from these stocks in medium for a total of 9 dilutions. At least four hours after the cells were seeded, drug treatment was initiated by adding one volume of each 2×-concentrated drug dilution to one volume of cells/medium in the tissue culture plates. Cells were then incubated for 3 days at 37° C./5% CO2. After 3 days of treatment, the CellTiter 96® Aqueous One Solution cell proliferation assay (Promega) was performed by adding the MTS solution to each well. The plates were then incubated at 37° C./5% CO2 for 3.5 hours. Plates were then read in a Victor^3V 1420 multilabel counter (Perkin Elmer) and CC50 concentrations were determined using Microsoft Excel and XLfit 4.1 software.

CYP3A4 = assay: Effect of CYP3A4 inhibitors (ketoconazole, ritonavir) on metabolic stability in rat liver microsomes; assay type: in vitro ADME; conditions: rat microsomes 1 mg/mL, 60 min, 10 μM, NADPH
Procedure: Incubations were conducted in a final volume of 0.1 mL per incubation time point. […] Final solvent (DMSO or methanol) concentration was maintained at 0.2%. Reactions were initiated by the addition of an NADPH regenerating system (1.3 mM NADP^+, 3.3 mM glucose-6-phosphate, 0.4 U/ml glucose-6-phosphate dehydrogenase, and 3.3 mM MgCl2, final concentrations). Incubations with no inhibitor served as control. Reactions were terminated at 30 min (monkey) or 60 min (rat and human) by the addition of 0.2 mL of stop solution (acetonitrile). The samples were vortex-mixed for 30 sec and then centrifuged at 10,000×g for 10 min. The supernatant was dried using a Labconco CentriVap concentrator and the dry residue reconstituted in water, transferred to an HPLC glass vial and analyzed by HPLC-UV method 1 (described above).
Because Compound 1 is rapidly metabolized in monkey liver microsomes, incubation conditions were adjusted by reducing protein content to 0.5 mg/mL and incubation time to 30 min. Incubation conditions for rat and human were unchanged; protein was 1 mg/mL and incubation time was 60 min.

[3] = Total radioactivity in rat liver after [^14C]-Compound 1; assay type: in vivo, male Sprague-Dawley rats
Procedure: Isotopically diluted [^14C]-Compound 1 was administered intravenously to male Sprague-Dawley rats at 50 mg/kg or by oral gavage at 100 mg/kg.
Liver samples were collected at 2, 6 and 24 h postdose from the animals of both the IV and the PO dose groups. The samples were flash frozen after excision and kept on dry ice during homogenization. The homogenization was conducted on dry ice in 70% methanol-30% water containing 20 mM EDTA and 20 mM EGTA (about 1× (w/v) weight of the liver). Triplicate weighed aliquots (about 500 mg) were combusted in the Packard Sample Oxidizer and followed by LSC analysis to determine radioactivity […]). The average data for levels of total radioactivity in liver are summarized below.

[4] = Cytotoxicity (MTS assay), GS4.1 cells, Example 18; assay type: cell-based, human; conditions: human, GS4.1 cells (wild-type); GS4.1 (wild-type), MTS assay, N = 3
Procedure: (§1) Cells were plated and treated with inhibitors as described above.

GS4.1 cells = assay: Cytotoxicity (MTS assay), GS4.1 cells, Example 18; assay type: cell-based, human; conditions: wild-type or S282T replicon cells treated with up to 100 μM
Procedure: as §1

[5] = Cytotoxicity (MTS assay), 184R-D2 cells; assay type: cell-based; conditions: human, 184R-D2 cells (S282T), 184R-D2 (S282T), N = 3
Procedure: as §1

[6] = Group 1A: IV 50 mg/kg, 2 h postdose
[7] = Group 1B: IV 50 mg/kg, 6 h postdose
[8] = Group 1C: IV 50 mg/kg, 24 h postdose
[9] = Group 2A: PO 100 mg/kg, 2 h postdose
[10] = Group 2B: PO 100 mg/kg, 6 h postdose
[11] = Group 2C: PO 100 mg/kg, 24 h postdose

CC(C)(CO)C(=O)SCCOP(=O)(NCc1ccccc1)OC[C@H]1O[C@@H](n2cnc3c(=O)[nH]c(N)nc32)[C@](C)(O)[C@@H]1O (mixture of isomers) [Compound 1, 3-hydroxy-2,2-dimethyl-thiopropionic acid S-(2-{[(2R,3R,4R,5R)-5-(2-amino-6-oxo-1,6-dihydro-purin-9-yl)-3,4-dihydroxy-4-methyl-tetrahydro-furan-2-ylmethoxy]-benzylamino-phosphoryloxy}-ethyl) ester]
EC50 [1]: 0.379 ± 0.083 µM
CC50 at 3 days [2]: > 100 µM
% Residual Compound 1 (CYP3A4; Ketoconazole 0.1 μM): 83%
% Residual Compound 1 (CYP3A4; Ketoconazole 1 μM): 120%
% Residual Compound 1 (CYP3A4; Ritonavir 0.1 μM): 101%
% Residual Compound 1 (CYP3A4; Ritonavir 1 μM): 123%
% Residual Compound 1 (CYP3A4; inhibitor 0 μM): 86%
Concentration of total radioactivity in liver as μg equivalents/gram [3, 6]: 206 ± 24 μg equivalents/gram
Total radioactivity in liver as % AD [3, 6]: 15.5 ± 0.7 % AD
Concentration of total radioactivity in liver as μg equivalents/gram [3, 7]: 137 ± 12 μg equivalents/gram
Total radioactivity in liver as % AD [3, 7]: 10.1 ± 1.0 % AD
Concentration of total radioactivity in liver as μg equivalents/gram [3, 8]: 23.2 ± 3.1 μg equivalents/gram
Total radioactivity in liver as % AD [3, 8]: 1.76 ± 0.11 % AD
Concentration of total radioactivity in liver as μg equivalents/gram [3, 9]: 5.09 ± 0.78 μg equivalents/gram
Total radioactivity in liver as % AD [3, 9]: 0.20 ± 0.04 % AD
Concentration of total radioactivity in liver as μg equivalents/gram [3, 10]: 10.3 ± 1.2 μg equivalents/gram
Total radioactivity in liver as % AD [3, 10]: 0.37 ± 0.05 % AD
Concentration of total radioactivity in liver as μg equivalents/gram [3, 11]: 4.08 ± 1.10 μg equivalents/gram
Total radioactivity in liver as % AD [3, 11]: 0.17 ± 0.03 % AD
total radioactivity in liver, % of the administered dose ([3]; IV [^14C]Compound 1, 2 h): 16%
total radioactivity in liver, % of the administered dose ([3]; IV [^14C]Compound 1, 6 h): 10%
total radioactivity in liver, % of the administered dose ([3]; IV [^14C]Compound 1, 24 h): 1.8%
total radioactivity in liver ([3]; IV, 2 h): 206 μg equivalents of Compound 1/g of liver
total radioactivity in liver ([3]; IV, 6 h): 137 μg equivalents of Compound 1/g of liver
total radioactivity in liver ([3]; IV, 24 h): 23 μg equivalents of Compound 1/g of liver
total radioactivity in liver ([3]; oral administration, 2 h): 5 μg equivalents of Compound 1/g of liver
total radioactivity in liver, % of the dose ([3]; oral administration, 2 h): 0.2%
total radioactivity in liver ([3]; oral administration, 6 h): 10 μg equivalents of Compound 1/g of liver
total radioactivity in liver, % of the dose ([3]; oral administration, 6 h): 0.4%
total radioactivity in liver ([3]; oral administration, 24 h): 4 μg equivalents of Compound 1/g of liver
total radioactivity in liver, % of the dose ([3]; oral administration, 24 h): 0.2%
CC50 at 3 days [4]: > 100 µM
in vitro cytotoxicity (MTS) (GS4.1 cells): no evidence of in vitro cytotoxicity
CC50 at 3 days [5]: > 100 µM
